A short description of data set [1]: Plasma pharmacokinetics following single intravenous and subcutaneous injections of salmeterol xinafoate. The conditions noted are these: for AUC(0-inf): AUCinf; for half-life: t1/2. The procedure:
Salmeterol xinafoate was formulated in 5% PEG-400 in 0.9% saline, USP, at concentrations of 0.1, 1, 10, and 100 μg/mL. 1 male and 1 female non-naive Gottingen minipigs (18.4 to 19.5 kg at the time of the IV dose) were utilized. The animals were housed individually.
Each minipig received a single IV injection followed by SC doses of the salmeterol formulation. The IV dose was administered by slow bolus (1 minute; 0.0167 hr) into the marginal ear vein, whereas the first SC dose was administered as a bolus injection along the back (neck-region) where there was a longitudinal fat depot. The second SC dose was distributed in 5 separate SC injection sites. The fourth, fifth, and sixth administrations were SC administrations divided over 5 injection sits of different graded concentrations (0.1, 1, and 10 μg/mL of salmeterol in 5% PEG). Each dose was separated by at least a 3-day washout period. Blood samples (approximately 4 mL) were collected via the branchiocephalic plexus at pre-dose and at 2.00, 5.00, 10.0, 20.0, 30.0 and 45.0 minutes, and at 1.00, 2.00, 4.00, 8.00 and 24.0 hr post-dose. Blood samples were placed in tubes containing K2-EDTA as the anticoagulant. Samples were processed to plasma by centrifugation and stored frozen at approximately −70° C. (+/−15° C.) until shipment for analysis.
Plasma samples were analyzed for salmeterol using a qualified liquid chromatography/mass spectrometry/mass mass spectrometry (LC/MS/MS) method. The lower limit of quantitation (LLOQ) was 2.50 pg/mL. Samples were analyzed within a maximum of 14.0 days of collection.
Non-compartmental pharmacokinetic parameters were calculated using WinNonlin 5.2 software, NCA model 202, IV infusion input for the IV data and NCA model 200, extravascular input for the SC data. Individual plasma concentrations for each animal were used in the calculation of pharmacokinetic parameters. Nominal collection times and doses were used in the calculations. The area under the plasma concentration-time curve (AUC) was calculated using linear trapezoidal approximation (linear/log interpolation). Concentration values below the assay limit of quantitation were set to zero for calculations. The maximum plasma concentration (Cmax) and the time of its occurrence (Tmax) were verified by inspection. The half-life (t1/2) values were calculated using the last 3 plasma concentrations with nonzero values, if data permitted.

For data set [2] the following is noted: versus albuterol, a short-acting hydrophilic beta-adrenergic agonist; cited from earlier work.
Data set [3] deals with abdominal subcutaneous adipose tissue.
Description: To evaluate in a single masked, placebo-controlled design, the safety and exploratory efficacy measures of subcutaneous injections of three different doses of the combination of salmeterol xinafoate (SX) and fluticasone propionate (FP) administered by subcutaneous injection 1 or 2 times per week for 4 weeks to subjects with measurable abdominal subcutaneous adipose tissue.
A single-masked, placebo-controlled multiple-dose study of the safety and efficacy of three different doses of the combination of salmeterol xinafoate (SX) and fluticasone propionate (FP) administered by subcutaneous injection 1 or 2 times per week for 4 weeks in 60 subjects with measurable abdominal subcutaneous adipose tissue.
A 400 μg/mL sterile, preservative-free, clear, aqueous solution for injection of SX is contained in a 5 mL single-use glass vial. Each 5 mL single-use glass vial contains 2.6 mL of SX solution (400 μg/mL) which is stored frozen (−15° C. or below) and protected from light until dose preparation. A 25 mg/mL sterile, preservative free, clear, aqueous solution for injection of FP is contained in a 2 mL single-use glass vial. […]
Measurements of waist were taken at specified time points. […] The full waist circumference, and the right and the left hemi-circumferences were recorded.
Data set [4] has the same test system. Put plainly: Phase 2 double-masked evaluation of safety and efficacy of SX and FP subcutaneous injection. The conditions noted are these: total weekly SX/FP dose of 11 μg/22 μg.
Description: A Phase 2 study to examine the potential of selected doses of salmeterol xinafoate (SX) and fluticasone propionate (FP) co-administered to reduce abdominal subcutaneous adipose tissue, which is an interim surrogate to guide studies in subjects with symptomatic exophthalmos associated with thyroid-related eye disease (TED). The study also evaluated the safety and efficacy of subcutaneous injections of salmeterol xinafoate (SX) and fluticasone propionate (FP) for the reduction of abdominal (peri- and infra-umbilical) adiposity. The study compared the efficacy and safety of salmeterol xinafoate (SX) and fluticasone propionate (FP) at 1.0 μg FP and 0.05 μg SX once weekly to 1 mL placebo once weekly for 8 weeks for the reduction of measurable, abdominal subcutaneous adipose tissue. Additionally, the study evaluated in a double-masked, placebo-controlled design, the pharmacokinetics following multiple injected doses of salmeterol xinafoate (SX) and fluticasone propionate (FP) once weekly for 8 weeks. […]
All injections were performed in an outpatient setting. […] Once the study was completed and unmasked, only the serum samples collected from subjects receiving the higher combination dose were analyzed.
A short description of data set [5]: Phase 1 open-label pharmacokinetics and safety of SX and FP co-administered subcutaneously in healthy volunteers. The conditions noted are these: 52 μg salmeterol xinafoate with 22 μg fluticasone propionate SC once per week for 4 weeks.
Protocol: Part III: An open-label, multiple-dose pharmacokinetic study of the selected SX+FP combined dose administered subcutaneously either 1 time per week for 4 weeks or 3 times per week for 4 weeks in twelve (12) healthy volunteers.
A 400 μg/mL sterile, preservative-free, clear, aqueous solution for injection of SX is contained in a 5 mL single-use glass vial. Each 5 mL single-use glass vial contains 2.6 mL of SX solution (400 μg/mL) which is stored frozen (−15° C. to −25° C.) and protected from light until dose preparation. A 25 mg/mL sterile, preservative free, clear, aqueous solution for injection of FP is contained in a 2 mL single-use glass vial. Each 2 mL single-use glass vial contains 1.0 mL of FP solution (25 μg/mL) which is stored frozen (−15° C. to −25° C.) and protected from light until dose preparation. Diluent: A sterile, preservative free, clear, aqueous solution of 20% PEG 400, 1% polysorbate 80, and sterile water for injection contained in a 10 mL single-use glass vial. Each 10 mL single-use glass vial contains 5.0 mL of diluent solution which should be stored at room temperature (15° C. to 25° C.). Prior to administration, the drug products are thawed, mixed, and if necessary diluted with sterile diluent to provide the target concentrations for dose administration. […]
Where [6] appears, read: female, Gottingen, minipig, in vivo, iv, 4 ug/kg.
The mark [7] stands for this setting: female, Gottingen, minipig, in vivo, sc, 0.4 ug/kg.
Setting [8] is: female, Gottingen, minipig, in vivo, sc, 4 ug/kg.
Where [9] appears, read: male, Gottingen, minipig, in vivo, iv, 4 ug/kg.
[10] abbreviates: male, Gottingen, minipig, in vivo, sc, 0.4 ug/kg.
Where [11] appears, read: male, Gottingen, minipig, in vivo, sc, 4 ug/kg.

The term Tmax denotes the time at which the peak concentration occurs. A word on the Vd: it is the apparent volume that relates the amount in the body to the concentration in plasma or blood. Low values mean little distribution into tissue, high ones wide distribution into tissue. Usually clearance stands for the rate of elimination divided by the concentration. A high value points to efficient removal. As usually defined, the AUC(0-inf) is total exposure, with the tail of the curve extrapolated. Read a high AUC(0-inf) as high exposure. Usually Cmax stands for the maximum level reached in the sampled fluid or tissue. One may read the half-life as the time needed for the level to fall by half in the phase considered. A high value points to slow decline. With `OCc1cc(C(O)CNCCCCCCOCCCCc2ccccc2)ccc1O` (racemic) [Salmeterol, ±2-(hydroxymethyl)-4-[1-hydroxy-2-[6-(4-phenylbutoxy)hexylamino]ethyl]-phenol], the Tmax in data set [1] (SC5 (5 sites) 4 μg/kg, male 1-0771) was 0.0833 h; in data set [1] (female, Gottingen, minipig, in vivo, iv, 4 ug/kg, Tmax), 0.0333 h; in data set [1] (female, Gottingen, minipig, in vivo, sc, 0.004 ug/kg, Tmax), 1 h; in data set [1] (female, Gottingen, minipig, in vivo, sc, 0.04 ug/kg, Tmax), 0.0333 h; in data set [1] (female, Gottingen, minipig, in vivo, sc, 0.4 ug/kg, Tmax) it was 0.0333 h; in data set [1] (male, Gottingen, minipig, in vivo, iv, 4 ug/kg, Tmax) it was 0.0333 h. In addition, the Tmax turned out to be 0.0833 h in data set [1] (male, Gottingen, minipig, in vivo, sc, 0.04 ug/kg); 0.0833 h in data set [1] (setting [10]); 0.0833 h in data set [1] (setting [11]). For the same molecule, the “salmeterol partition ratio (plasma Cmax ratio of subcutaneous to intravenous administration)” value in data set [1] (both, Gottingen, minipig, in vivo) is recorded as 0.1. In addition, the concentration at 0.0833 hr in data set [1] (female, Gottingen, minipig, in vivo) worked out at 0.485 ng/mL; in data set [1] (female, Gottingen, minipig, in vivo, 0.04 mg/kg) it was 0.00317 ng/mL; in data set [1] (female, Gottingen, minipig, in vivo, iv), 1.3 ng/mL; in data set [1] (female, Gottingen, minipig, in vivo, sc), 0.227 ng/mL; in data set [1] (male, Gottingen, minipig, in vivo), 0.681 ng/mL; in data set [1] (male, Gottingen, minipig, in vivo, 0.04 mg/kg), 0.00277 ng/mL. In addition, the concentration at 0.0833 hr in data set [1] (male, Gottingen, minipig, in vivo, iv) worked out at 1.38 ng/mL; in data set [1] (male, Gottingen, minipig, in vivo, sc), 0.575 ng/mL. The bioavailability in data set [1] (female, Gottingen, minipig, in vivo, 0.4 ug/kg, F (bioavailability)) is 112%; in data set [1] (female, Gottingen, minipig, in vivo, sc, 4 ug/kg, F (bioavailability)), 126%; in data set [1] (female, Gottingen, minipig, in vivo, sc, 4 ug/kg, bioavailability), 126 to 137%; in data set [1] (male, Gottingen, minipig, in vivo, 0.4 ug/kg, F (bioavailability)) it was 78.9%; in data set [1] (male, Gottingen, minipig, in vivo, sc, 4 ug/kg, F (bioavailability)) it was 73.7%; in data set [1] (male, Gottingen, minipig, in vivo, sc, 4 ug/kg, bioavailability) it was 73.7 to 86.3%. For the same molecule, the Vd in data set [1] (setting [6]) turned out to be 22.1 L/kg; in data set [1] (setting [9]) it was 17.1 L/kg. For the same molecule, the figures for the clearance in data set [1] (setting [6]) and in data set [1] (setting [9]) were 45.5 mL/min/kg and 38 mL/min/kg, respectively. Further, the AUC(0-inf) in data set [1] (setting [6]) is 1.47 ng·h/mL; in data set [1] (setting [7]), 0.164 ng·h/mL; in data set [1] (setting [8]), 1.85 ng·h/mL; in data set [1] (setting [9]) it was 1.75 ng·h/mL; in data set [1] (setting [10]), 0.138 ng·h/mL; in data set [1] (setting [11]), 1.29 ng·h/mL. The maximum concentration (Cmax) in data set [1] (female, Gottingen, minipig, in vivo, iv, 4 ug/kg, Cmax) is 4.95 ng/mL; in data set [1] (female, Gottingen, minipig, in vivo, sc, 0.004 ug/kg, Cmax) it was 0.00308 ng/mL; in data set [1] (female, Gottingen, minipig, in vivo, sc, 0.04 ug/kg, Cmax) it was 0.00831 ng/mL; in data set [1] (female, Gottingen, minipig, in vivo, sc, 0.4 ug/kg, Cmax) it was 0.113 ng/mL; in data set [1] (setting [8]), 0.626 ng/mL; in data set [1] (female, Gottingen, minipig, in vivo, sc, 4 ug/kg, Cmax), 0.403 ng/mL. Besides, the Cmax in data set [1] (male, Gottingen, minipig, in vivo, iv, 4 ug/kg, Cmax) turned out to be 4.29 ng/mL; in data set [1] (male, Gottingen, minipig, in vivo, sc, 0.04 ug/kg, Cmax), 0.00277 ng/mL; in data set [1] (male, Gottingen, minipig, in vivo, sc, 0.4 ug/kg, Cmax), 0.0645 ng/mL; in data set [1] (setting [11]) it was 0.681 ng/mL; in data set [1] (male, Gottingen, minipig, in vivo, sc, 4 ug/kg, Cmax), 0.575 ng/mL; in data set [1] (minipig, in vivo, 0.004 ug/kg), 0 ng/mL. Moreover, the half-life was 9.52 h in data set [1] (setting [6]); 2.88 h in data set [1] (setting [7]); 6.02 h in data set [1] (setting [8]); 7.89 h in data set [1] (setting [9]); 2.94 h in data set [1] (setting [10]); 5.92 h in data set [1] (setting [11]). In addition, the “F (bioavailability)” value in data set [1] (setting [7]) is recorded as 1.12; in data set [1] (setting [8]), 1.37; in data set [1] (setting [10]) it was 0.789; in data set [1] (setting [11]), 0.863. The AUCinf came to 2.01 ng·h/mL in data set [1] (setting [8]) and 1.51 ng·h/mL in data set [1] (setting [11]). The t1/2 in data set [1] (setting [8]) is 8.58 h; in data set [1] (setting [11]), 6.84 h. Moreover, the “partition ratio relative to the partition ratio of formoterol” value in data set [1] (minipig, in vivo) is “about five times lower”. Also, in data set [2], the “lipophilicity relative to albuterol” value is given as “at least 10,000 times”.
`OCc1cc(C(O)CNCCCCCCOCCCCc2ccccc2)ccc1O` (stereo not drawn) [salmeterol xinafoate]: in data set [3] (human clinical trial, FIGS. 3B and 7B), the “efficacy of once per week versus twice per week dosing” value was “more efficacious than twice per week dosing”. In addition, the “dose-therapeutic efficacy response (change in waist circumference)” value in data set [3] (lowest dose 0.5 μg salmeterol xinafoate once per week for 4 weeks, with fluticasone, versus higher weekly doses) is “greatest therapeutic efficacy”.
On to fluticasone propionate, for which, in data set [4], the “plasma levels relative to 505(b)(2) reference levels produced by an FDA-approved drug” value was “⅓-⅕”. Moreover, the “Cmax and AUC at day 22 compared to day 1” value in data set [5] is “increase”.

Source of the values: patent US9132084B2, “Methods for administration and formulations for the treatment of regional adipose tissue” (NEOTHETICS, INC., priority 2009, dated 2015).
